Literature values, collected in patent publication US9675585B1, “Extended release pharmaceutical formulations” (Ezra Pharma, priority 2016, dated 2017).

time after which plasma concentration reaches very low level (following Cmax): 10 to 12 h | Tmax (oral administration): 2 to 4 h
SMILES: CCCCC(=O)N(Cc1ccc(-c2ccccc2-c2nnn[nH]2)cc1)[C@H](C(=O)O)C(C)C [valsartan]
